Numbers after ± are expanded uncertainties.
Details: Liquid, DSC

CCCCCCCCO [octan-1-ol]
Details | vapor or sublimation pressure [kPa]
333.69 K | 0.2242 ± 0.022
333.97 K | 0.2242 ± 0.022
334.46 K | 0.2376 ± 0.024
341.76 K | 0.3855 ± 0.039
342.1 K | 0.3855 ± 0.039
343.33 K | 0.372 ± 0.037
344.5 K | 0.3855 ± 0.039
348.2 K | 0.5736 ± 0.057
348.72 K | 0.587 ± 0.059
349.1 K | 0.6004 ± 0.06
349.38 K | 0.587 ± 0.059
352.09 K | 0.7483 ± 0.075
352.98 K | 0.802 ± 0.08
353.96 K | 0.8087 ± 0.081
354.96 K | 0.7886 ± 0.079
357.9 K | 1.071 ± 0.11
357.94 K | 1.057 ± 0.11
357.99 K | 1.057 ± 0.11
358.41 K | 1.071 ± 0.11
362.88 K | 1.434 ± 0.14
363.3 K | 1.447 ± 0.14
363.51 K | 1.46 ± 0.15
364.35 K | 1.474 ± 0.15
369.69 K | 2.105 ± 0.21
369.76 K | 2.092 ± 0.21
369.9 K | 2.132 ± 0.21
370 K | 2.132 ± 0.21
379.04 K | 3.436 ± 0.34
379.35 K | 3.489 ± 0.35
379.45 K | 3.489 ± 0.35
379.49 K | 3.489 ± 0.35
387.2 K | 5.169 ± 0.52
387.28 K | 5.156 ± 0.52
387.87 K | 5.182 ± 0.52
387.92 K | 5.169 ± 0.52
407.24 K | 13.57 ± 1.4
408.44 K | 13.58 ± 1.4
408.9 K | 13.55 ± 1.4
409.3 K | 13.55 ± 1.4
435.48 K | 40.47 ± 4
438.31 K | 40.53 ± 4.1
438.58 K | 40.53 ± 4.1
438.8 K | 40.53 ± 4.1
468.15 K | 101.4 ± 10
468.47 K | 101.4 ± 10

Reference: the NIST ThermoML archive (doi:10.1016/j.tca.2013.03.018)
